Assay results taken from the NIST ThermoML archive (doi:10.1021/je7005924).

Conditions: Liquid

CC(C)=O [acetone]
Conditions | vapor or sublimation pressure [kPa]
297.67 K | 30.23
301.25 K | 35.22
307.33 K | 45.21
310.08 K | 50.4
312.52 K | 55.29
314.76 K | 60.29
316.8 K | 65.08
318.77 K | 70.07

CC(=O)C(C)=O [2,3-butanedione]
Conditions | vapor or sublimation pressure [kPa]
314.3 K | 19.06
320.55 K | 24.04
325.62 K | 29.03
329.85 K | 33.91
333.64 K | 39
336.76 K | 43.59
339.99 K | 48.97
342.8 K | 53.85
345.41 K | 58.83
347.62 K | 63.83
349.9 K | 68.81
351.89 K | 73.79

CCC(=O)C(C)=O [2,3-pentanedione]
Conditions | vapor or sublimation pressure [kPa]
331.84 K | 15.37
338.38 K | 20.36
343.73 K | 25.35
348.13 K | 30.35
352.15 K | 35.34
355.74 K | 40.33
358.85 K | 45.32
361.89 K | 50.21
364.69 K | 55.21
367.09 K | 60.2
369.44 K | 65.19
371.61 K | 70.18
373.8 K | 75.27
